The record followed here is patent publication US6559180B2, “Nitroglycerin-menthol potentiation for treatment of angina” (priority 2001, dated 2003).

A short description of series [1]: Second study: exercise stress tests in patients with reproducible exertional angina. In kind it is in vivo. The source says: The second study pertained to five patients that experienced reproducible exertional angina. The study comprised administering exercise stress tests for each patient on three consecutive days. […]
For each patient, the stress test was stopped with the onset of angina. The objective evidence of ischemia was indicated by the degree of S-T segment depression and presence of segmental wall abnormalities documented by echocardiographic study performed immediately after the exercise stress test.
All tests monitored angina with exercise, exercise tolerance, and the degree of S-T segment depression on the ECG, when: 1) no medication was administered (Table 1); […]); and, 3) a solution containing isovolumic amounts of NTG and Menthol […]

Series [2] is described as follows: First study: sublingual pump spray in angina patients intolerant to standard 400 mcg NTG spray (intolerance and anginal pain relief). The following applies: single 200 mcg NTG spray dosage sublingually, Nitrolingual solution diluted fifty percent with placebo solution; 21 patients. The series is classed as in vivo. As for the experimental part:
The first study identifies 21 patients experiencing intolerance to a standard “Nitrolingual”® NTG 400 mcg spray dosage delivered sublingually.
The “Nitrolingual”® solution described above was diluted fifty percent with a pharmacologically neutral solution placebo obtained from the same manufacturer, forming a combination solution. […] Each of the patients was then provided with a pump spray containing the combination solution which would limit each single spray dosage to 200 mcg NTG.
Next, isovolumic amounts of “Nitrolingual”® Pumpspray solution and 1% Menthol solution were mixed and the combination solution was provided to patients as a pump spray.

SMILES strings stand for the structures. “And” between values parts separate entries of the source, which are not always exact repeats. Equal values may be shown once.

Take `O=[N+]([O-])OCC(CO[N+](=O)[O-])O[N+](=O)[O-]` [NTG, Nitroglycerin]: the “Heart Rate at Peak” value in series [1] (400 mg NTG administered prior to exercise, one line per patient (1-5)) is 120 and 128 and 140 and 112 and 130. The “Duration of Exercise” value in series [1] (400 mg NTG administered prior to exercise, test stopped at onset of angina, one line per patient (1-5)) is 5 min and 6 min and 6.5 min and 4.5 min and 7.5 min. Besides, the side effects observed result in series [1] (400 mcg NTG by itself or 200 mcg NTG in combination with Menthol, before exercise) is “No side effects were observed”. Further, in series [2], the “patients that did not experience intolerance” value is reported as 90% and the “patients that received satisfactory relief from anginal pain within two minutes” value was 19%.
